Source: patent publication US6919317B2, “Pharmaceutical composition comprising squalene epoxidase inhibitor and macrolide immunomodulator” (priority 2000, dated 2005)

Legend:
Type in all cases: cell-based
[1] = system: Candida albicans; test: NCCLS broth dilution combination study in yeast (modified M27-T), Candida albicans isolate; settings: for Antifungal activity of test compound alone: C. albicans isolate; for Interaction with fluconazole, C. albicans / Interaction with terbinafine, C. albicans: interpretation of FICI, MIC = 80% inhibition of growth, 48 hours; for Interaction with terbinafine, C. albicans: 37°, pH 7.0, isolate susceptible to both drugs
Description: (§1) Combination studies are performed with Candida species, using the NCCLS standard assay (National Committee for Clinical Laboratory Standards [1995], Reference method for broth dilution antifungal susceptibility testing of yeasts (Tentative Standard M27-T, NCCL, Villanova, Pa., U.S.A.), modified as follows: the assay is effected in RPMI 1640 medium without NaHCO3 but with L-glutamine buffered with MOPS at pH 7.0 at 37°. The inoculum is 2.5×10^3 cfu/ml. Incubation times are 48 hours. The MIC is defined as the lowest drug concentration causing 80% inhibition of fungal growth.
(§2) The reference test compound (either terbinafine or fluconazole) is tested in a full concentration range in the absence or presence of the other test drug at 1, 2, 4, and 8 μg/ml.
(§3) Interaction between the drugs is analysed by calculation of the Fractional Inhibitory Concentration Index (FICI), defined as: FICI=[(MIC A in combination)/MIC A]+[MIC B in combination]/MIC B]
(§4) Interpretation of FICI in terms of interaction between the two drugs is as follows: FICI=0.5: synergy; <0.5<FICI=1: additive; 1<FICI=2: indifferent; 2<FICI: antagonism (in practical terms, synergy by this definition means that the MICs of both drugs are reduced by at least 2 dilution steps when used in combination).
(§5) The ability of the four test compounds 33-epichloro,33-desoxyascomycin, 5,6-dehydroascomycin, ascomycin and tacrolimus to influence the antifungal activity of terbinafine and fluconazole was examined in a Candida albicans isolate susceptible to both drugs, and in one isolate of Candida krusei which is resistant to terbinafine and poorly responsive to fluconazole.

[2] = system: Candida krusei; test: NCCLS broth dilution combination study in yeast (modified M27-T), Candida krusei isolate; settings: for Antifungal activity of test compound alone: C. krusei isolate; for Interaction with terbinafine as reference compound (in words): against Candida krusei; for Interaction with fluconazole, C. krusei / Interaction with terbinafine, C. krusei: interpretation of FICI, MIC = 80% inhibition of growth, 48 hours; for Interaction with fluconazole, C. krusei: isolate poorly responsive to fluconazole; for Interaction with terbinafine, C. krusei: isolate resistant to terbinafine
Description: as §1, §2, §3, §4, §5

[3] = system: Microsporum canis (strain NFI 5167); test: Checkerboard combination study in dermatophyte, modified NCCLS microdilution M38-P; settings: for MIC single drug: MIC = lowest concentration causing 80% inhibition of fungal growth; for MIC single drug / MIC combination: unit assumed; for MIC combination: terbinafine hydrochloride combined with 33-epichloro,33-desoxyascomycin, MIC = 80% inhibition
Description: Minimum Inhibitory Concentrations (MIC) against dermatophytes are determined in 96-well assay trays by a modification of the NCCLS microdilution procedure M38-P (National Committee for Clinical Laboratory Standards, Reference method for broth antifungal susceptibility testing of conidium-forming filamentous fungi; NCCLS document M38-P; NCCLS, Wayne, Pa., USA [1998]), as detailed in H. A. Norris et al., J. Am. Acad. Dermatol. 40 [1999] S9-S13). The MIC is defined as the lowest drug concentration causing 80% inhibition of fungal growth.
Combination studies are performed in a checkerboard design using the above assay to provide a matrix of all possible dose combination of the two drugs within the required concentration range. The matrix structure is provided by the microtiter trays used for the assay. The terbinafine dilution series is arranged on the y-axis (in columns) and the partner drug on the x-axis (in rows). In each row, well no. 1 contains the sterility control, well no. 2 contains terbinafine hydrochloride alone, wells no. 3 to no. 11 contain the dilution series of the partner drug 33-epichloro,33-desoxyascomycin, and well no. 12 contains the growth control. In each column, well A contains the partner drug alone and wells B to H contain the dilution series of terbinafine hydrochloride.
The nature of the interaction between the two drugs is defined quantitatively by means of the Fractional Inhibitory Concentration Index (FICI), which is calculated by the following formula: FICI=[(MIC A in combination)/MIC A]+[(MIC B in combination)/MIC B].
Interpretation of the FICI is: • ≦0.5: synergy; • >0.5 but ≦1: additive; • >1 but ≦2: indifferent; • >2: antagonism.
In practice, synergy calculated in this way is equivalent to a reduction of at least 2 dilution steps in the MIC of each drug when they are combined.

SMILES: CC[C@@H]1/C=C(\C)C[C@H](C)C[C@H](OC)[C@H]2O[C@@](O)(C(=O)C(=O)N3C=CCC[C@H]3C(=O)O[C@H](/C(C)=C/[C@@H]3CC[C@@H](O)[C@H](OC)C3)[C@H](C)[C@@H](O)CC1=O)[C@H](C)C[C@@H]2OC [5,6-Dehydro-ascomycin, {1R,5Z,9S,12S-[1E-(1R,3R,4R)],13R,14S,17R,18E,21S,23S,24R,25S,27R}-17-ethyl-1,14-dihydroxy-12-[2-(4-hydroxy-3-methoxycyclohexyl)-1-methylvinyl]-23,25-dimethoxy-13,19,21,27-tetramethyl-11,28-dioxa-4-azatricyclo[22.3.1.0(4,9)]octacos-5,18-diene-2,3,10,16-tetraone]
- Antifungal activity of test compound alone [1]: completely inactive
- Interaction with fluconazole, C. albicans [1]: − (−: indifferent/antagonistic)
- Interaction with terbinafine, C. albicans [1]: + (+: additive)
- Antifungal activity of test compound alone [2]: completely inactive
- Interaction with terbinafine as reference compound (in words) [2]: strongly positive
- Interaction with fluconazole, C. krusei [2]: − (−: indifferent/antagonistic)
- Interaction with terbinafine, C. krusei [2]: − (−: indifferent/antagonistic)

SMILES: CC[C@@H]1/C=C(\C)C[C@H](C)C[C@H](OC)[C@H]2O[C@@](O)(C(=O)C(=O)N3CCCC[C@H]3C(=O)O[C@H](/C(C)=C/[C@@H]3CC[C@H](Cl)[C@H](OC)C3)[C@H](C)[C@@H](O)CC1=O)[C@H](C)C[C@@H]2OC [33-Epichloro,33-desoxy-ascomycin, {[1E-(1R,3R,4S)]1R,9S,12S, 13R,14S,17R,18E, 21S,23S,24R,25S,27R}-12-[2-(4-chloro-3-methoxycyclohexyl)-1-methylvinyl]-17-ethyl-1,14-dihydroxy-23,25-dimethoxy-13,19,21,27-tetramethyl-11,28,dioxa-4-azatricyclo [22.3.1.0(4,9)]octacos-18-ene-2,3,10,16-tetraone]
- Antifungal activity of test compound alone [1]: completely inactive
- Interaction with fluconazole, C. albicans [1]: − (−: indifferent/antagonistic)
- Interaction with terbinafine, C. albicans [1]: + (+: additive)
- Antifungal activity of test compound alone [2]: completely inactive
- Interaction with terbinafine as reference compound (in words) [2]: strongly positive
- Interaction with fluconazole, C. krusei [2]: − (−: indifferent/antagonistic)
- Interaction with terbinafine, C. krusei [2]: − (−: indifferent/antagonistic)
- FICI ([3]; combination with terbinafine hydrochloride): 0.28
- Interpretation (of FICI) ([3]; combination with terbinafine hydrochloride, ≦0.5: synergy): synergy
- MIC single drug [3]: 64 mg/L
- MIC combination [3]: 16 mg/L

SMILES: CC[C@@H]1/C=C(\C)C[C@H](C)C[C@H](OC)[C@H]2O[C@@](O)(C(=O)C(=O)N3CCCC[C@H]3C(=O)O[C@H](/C(C)=C/[C@@H]3CC[C@@H](O)[C@H](OC)C3)[C@H](C)[C@@H](O)CC1=O)[C@H](C)C[C@@H]2OC [Ascomycin, ascomycin]
- Antifungal activity of test compound alone [1]: completely inactive
- Interaction with fluconazole, C. albicans [1]: − (−: indifferent/antagonistic)
- Interaction with terbinafine, C. albicans [1]: + (+: additive)
- Antifungal activity of test compound alone [2]: completely inactive
- Interaction with terbinafine as reference compound (in words) [2]: powerfully synergistic
- Interaction with fluconazole, C. krusei [2]: − (−: indifferent/antagonistic)
- Interaction with terbinafine, C. krusei [2]: (* ((*: synergy)

SMILES: C=CC[C@@H]1/C=C(\C)C[C@H](C)C[C@H](OC)[C@H]2O[C@@](O)(C(=O)C(=O)N3CCCC[C@H]3C(=O)O[C@H](/C(C)=C/[C@@H]3CC[C@@H](O)[C@H](OC)C3)[C@H](C)[C@@H](O)CC1=O)[C@H](C)C[C@@H]2OC [Tacrolimus, tacrolimus]
- Antifungal activity of test compound alone [1]: completely inactive
- Interaction with fluconazole, C. albicans [1]: − (−: indifferent/antagonistic)
- Interaction with terbinafine, C. albicans [1]: + (+: additive)
- Antifungal activity of test compound alone [2]: completely inactive
- Interaction with terbinafine as reference compound (in words) [2]: powerfully synergistic
- Interaction with fluconazole, C. krusei [2]: − (−: indifferent/antagonistic)
- Interaction with terbinafine, C. krusei [2]: (* ((*: synergy)

SMILES: OC(Cn1cncn1)(Cn1cncn1)c1ccc(F)cc1F [fluconazole]
- Interaction of fluconazole with the macrolide test compounds (in words) ([1]; Candida albicans, statement covers both Candida isolates): no potent synergy
- Interaction of fluconazole with the macrolide test compounds (in words) ([2]; Candida krusei, statement covers both Candida isolates): no potent synergy

SMILES: CN(C/C=C/C#CC(C)(C)C)Cc1cccc2ccccc12 [terbinafine, (E)-N-methyl-N-(1-naphthylmethyl)-6,6-dimethylhept-2-en-4-amin]
- MIC single drug [3]: 0.031 mg/L
- MIC combination [3]: 0.001 mg/L
